Assay results from article PMC5897336, “Phosphatase activity tunes two-component system sensor detection threshold” (Nature Communications, 2018).

Test system: ThsS
Conditions: read-out: K1/2; whole E. coli cells, M9 glycerol, 37 °C, agonist, added as Na2S2O3, 200 μM IPTG, 20 ng/mL aTc; wild type taken as the upper end of the printed range

EC50: 192 µM
Compound: O=S(=O)(O)S [thiosulfate]
